The CC50 is the concentration that lowers cell viability or growth by half. In general, EC50 refers to the concentration giving half of the maximal effect.

These results are taken from article PMC8557901 (Microbiology Spectrum, 2021).

Data set [1] relates to P. falciparum F32-ART5 quiescent parasites. In words: Quiescent-stage survival assay (QSA). It is filed as cell-based, Plasmodium falciparum. Particulars: artemisinin 3 μM 6 h then artemisinin + M1 2.5 μM 24 h versus artemisinin alone; 6-day threshold = active. The method, then:
The Plasmodium falciparum artemisinin-resistant strain F32-ART5 and its twin artemisinin-sensitive line F32-TEM ([30], [31]) were cultivated at 37°C with 5% CO2 in human red blood cells (EFS [French Blood Bank]) diluted to 2% hematocrit in RPMI 1640 medium supplemented with 5% human serum (EFS) as previously reported ([47]).
Chemosensitivity evaluation of artemisinin-resistant parasites at the quiescent stage was performed on the F32-ART5 strain using the quiescent-stage survival assay (QSA) ([33]). D-Sorbitol-synchronized ring-stage parasites at 3% parasitemia (2% hematocrit) were first exposed to 3 μM artemisinin for 6 h to induce quiescence of artemisinin-resistant parasites. Then, quiescent parasites were exposed or not (as a control condition) to 2.5 μM M1 for 24 h. After drug exposure, parasite cultures were washed with RPMI 1640 medium and replaced in normal drug-free culture conditions. The time to parasite recrudescence was determined as the time required to reach initial parasitemia. […] In each experiment, results obtained with the condition “artemisinin 3 μM 6 h/artemisinin 3 μM 24 h” were compared to those obtained with the condition “artemisinin 3 μM 6 h/(artemisinin 3 μM + M1 2.5 μM) 24 h” in order to determine the delay in recrudescence time. […] Each experiment was carried out three times independently, and data statistically analyzed. […]

Data set [2] is described as follows: MTT cell viability assay, simian primary hepatocytes. Format: cell-based. Particulars: Macaca fascicularis (cynomolgus monkey), primary hepatocytes (cryopreserved). The source says: (§1) Primary human hepatocytes were isolated from liver segments obtained from adult patients undergoing partial hepatectomy (Service de Chirurgie Digestive, Hépato-Bilio Pancréatique, Hôpital Pitié Salpêtrière, Paris, France). Primary simian hepatocytes were isolated from liver segments collected from healthy Macaca fascicularis monkeys from CEA, Fontenay aux Roses, France. All hepatocytes were obtained using collagenase perfusion as previously described ([40]). Simian hepatocytes were immediately cryopreserved with a Nicool-Freezal controlled rate freezer (Air Liquide Santé, Marne la Vallée, France) and then used when needed after fast thawing at 37°C. Primary murine hepatocytes were isolated from liver segments collected from BALB/c mice. Human and murine hepatocytes were used directly after their isolation. Cells were seeded in 96-well plates (Falcon; Becton Dickinson Labware Europe, France) coated with collagen I (BD Bioscience, USA) at a density of 80,000 cells per well. […]
(§2) The toxicity of M1 toward primary hepatocytes and HepG2-CD81 cells was evaluated through the MTT {[3-(4,5-dimethyl-2-thiazolyl)-2,5-diphenyl-2H-tetrazolium bromide]} test ([42]). […] Then, MTT was replaced by a mixture of DMSO-ethanol (1:1) to dissolve formazan crystals and the absorbance was read at 540 nm on a FlexStation plate reader.

Data set [3] in a line: MTT cell viability assay, human primary hepatocytes. Format: cell-based.
Description: as §1, §2
A general note: Tetrazolium dyes change colour on reduction, which living cells bring about.

Data set [4] concerns P. yoelii (GFP-luc strain). In words: In vivo liver-stage assay in mice infected with P. yoelii sporozoites. Also on record: species or system BALB/c mice. Here is the method:
Five mice per treatment group were used. Experimental groups were treated with 50 and 100 mg/kg of M1 intraperitoneally (i.p.). Untreated infected mice and noninfected mice (infection controls), as well as primaquine-treated (50 mg/kg) mice (control drug), were also included. The drugs were administered on days −1, 0, and +1, and mice were challenged on day zero by retroorbital injection of P. yoelii (GFP-luc strain) sporozoites (10,000 per mouse). In vivo bioluminescence imaging was performed 44 h postinfection on day 2, to assess liver-stage development. When parasites were detected in the liver, treatment was continued until day 5 and in vivo imaging was performed on days 3 and 6, to evaluate a prepatent period for the blood-stage parasites in mice after the sporozoite inoculation. In vivo imaging and blood smears were performed to monitor blood-stage development using methods described previously ([45]). This experiment was performed twice.
IVIS Spectrum (Caliper Life Science, Hanover, MD) was used to capture bioluminescence signals. Prior to analysis, the mice were injected i.p. with D-luciferin (100 mg/kg), anesthetized with isoflurane, and imaged 10 min postinjection. Images were analyzed using the Living Image 3.0 software (Caliper Life Sciences, Hanover, MD).
In order to study the in vivo efficacy of M1 without any hepatic CYP metabolism, we conducted an experiment using 1-aminobenzotriazole (ABT), a nonselective inhibitor of cytochrome P450 enzymes ([34], [35]). ABT was administered to mice i.p. 1 h before each treatment with 50 mg/kg gamhepathiopine for 3 days starting from the day before sporozoite inoculation.

The subject of data set [5] is P. yoelii in HepG2-CD81 cells. Also on record: method as in PMID 25791675. Particulars: liver stage of Plasmodium yoelii infecting HepG2-CD81 cells; cited from earlier work.

Some results are limits rather than exact numbers.

With `Cc1ccc(-c2cc3nc(NC(C)(C)C)[nH]c(=O)c3s2)cc1` [Metabolite M1, 2-(tert-Butylamino)-6-(p-tolyl)thieno[3,2-d]pyrimidin-4(3H)-one], the “median delay in recrudescence time” value in data set [1] was determined as 6 days. The same compound gave a CC50 at 8 days in data set [2] of more than 60 µM. The same compound yielded a cytotoxic concentration (CC50) at 5 days in data set [3] of more than 60 µM. Further, the “development of liver-stage parasites in vivo at day 2” value in data set [4] (50 mg/kg i.p., 44 h postinfection, bioluminescence) is listed as “did not prevent the development of liver-stage parasites”. Further, the “blood-stage parasitemia after sporozoite infection” value in data set [4] (50 mg/kg, blood smears days 3 and 6) is “reduced the burden of blood-stage parasites”. Moreover, in data set [4] (M1 50 mg/kg with 1-aminobenzotriazole 50 mg/kg i.p.), the “in vivo activity against the hepatic stages with ABT cotreatment” value is reported as “improved”. Besides, the EC50 in data set [5] is 0.035 µM.
